# Assay results reported in PubChem BioAssay (NCI).
#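 Interpolation was linear, between the two tested concentrations surrounding the appropriate level; five concentrations were tested over 48 hours in 96-well plates. TGI: total growth inhibition.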
# Legend:
# Assay in all cases: inhibition of tumour cell growth, NCI panel, 48 h
# [1] = tested on: KM12 colon
# [2] = tested on: HL-60(TB) leukemia
# [3] = tested on: HOP-62 NSCLC
# [4] = tested on: SK-MEL-5 melanoma
# [5] = tested on: NCI-H23 lung
# [6] = tested on: SK-MEL-2 melanoma
# [7] = tested on: SN12C renal
# [8] = tested on: U251 CNS
# [9] = tested on: K-562 leukemia
# [10] = tested on: OVCAR-8 ovarian
# [11] = tested on: TK-10 renal
# [12] = tested on: UACC-257 melanoma
# [13] = tested on: SF-268 CNS
# [14] = tested on: HCT-15 colon
# [15] = tested on: SNB-75 CNS
# [16] = tested on: RXF 393 renal
# [17] = tested on: NCI-H522 lung
# [18] = tested on: HCT-116 colon
# [19] = tested on: SK-MEL-28 melanoma
# [20] = tested on: NCI-H226 lung
# [21] = tested on: MALME-3M melanoma
# [22] = tested on: 786-0 renal
# [23] = tested on: SW-620 colon
# [24] = tested on: A549 NSCLC
# [25] = tested on: T-47D breast
# [26] = tested on: HT29 colon
# [27] = tested on: DU-145 prostate
# [28] = tested on: ACHN renal
# [29] = tested on: UACC-62 melanoma
# [30] = tested on: SF-539 CNS
# [31] = tested on: SR leukemia
# [32] = tested on: COLO 205 colon
# [33] = tested on: NCI/ADR-RES ovarian
# [34] = tested on: CCRF-CEM leukemia
# [35] = tested on: MCF7 breast
# [36] = tested on: SK-OV-3 ovarian
# [37] = tested on: RPMI-8226 leukemia
# [38] = tested on: BT-549 breast
# [39] = tested on: OVCAR-5 ovarian
# [40] = tested on: HCC-2998 colon
# [41] = tested on: HS 578T breast
# [42] = tested on: IGROV1 ovarian
# [43] = tested on: CAKI-1 renal
# [44] = tested on: MOLT-4 leukemia
# [45] = tested on: A498 renal
# [46] = tested on: MDA-MB-231 breast
# [47] = tested on: SNB-19 CNS
# [48] = tested on: LOX IMVI melanoma
# [49] = tested on: SF-295 CNS
# [50] = tested on: UO-31 renal
# [51] = tested on: M14 melanoma
# [52] = tested on: PC-3 prostate
# [53] = tested on: EKVX NSCLC
# [54] = tested on: MDA-MB-435
# [55] = tested on: HOP-92 NSCLC
# [56] = tested on: OVCAR-4 ovarian
# [57] = tested on: OVCAR-3 ovarian
# [58] = tested on: NCI-H460 lung
structure (smiles),measurement,setting,value
OC[C@H]1N[C@H](CO)[C@@H](O)[C@H]1O,TGI,[1],> 100 µM
same,TGI,[2],> 100 µM
same,TGI,[3],> 100 µM
same,TGI,[4],> 100 µM
same,TGI,[5],> 100 µM
same,TGI,[6],> 100 µM
same,TGI,[7],> 100 µM
same,TGI,[8],> 100 µM
same,TGI,[9],> 100 µM
same,TGI,[10],> 100 µM
same,TGI,[11],> 100 µM
same,TGI,[12],> 100 µM
same,TGI,[13],> 100 µM
same,TGI,[14],> 100 µM
same,TGI,[15],> 100 µM
same,TGI,[16],> 100 µM
same,TGI,[17],> 100 µM
same,TGI,[18],> 100 µM
same,TGI,[19],> 100 µM
same,TGI,[20],> 100 µM
same,TGI,[21],> 100 µM
same,TGI,[22],> 100 µM
same,TGI,[23],> 100 µM
same,TGI,[24],> 100 µM
same,TGI,[25],> 100 µM
same,TGI,[26],> 100 µM
same,TGI,[27],> 100 µM
same,TGI,[28],> 100 µM
same,TGI,[29],> 100 µM
same,TGI,[30],> 100 µM
same,TGI,[31],> 100 µM
same,TGI,[32],> 100 µM
same,TGI,[33],> 100 µM
same,TGI,[34],> 100 µM
same,TGI,[35],> 100 µM
same,TGI,[36],> 100 µM
same,TGI,[37],> 100 µM
same,TGI,[38],> 100 µM
same,TGI,[39],> 100 µM
same,TGI,[40],> 100 µM
same,TGI,[41],> 100 µM
same,TGI,[42],> 100 µM
same,TGI,[43],> 100 µM
same,TGI,[44],> 100 µM
same,TGI,[45],> 100 µM
same,TGI,[46],> 100 µM
same,TGI,[47],> 100 µM
same,TGI,[48],> 100 µM
same,TGI,[49],> 100 µM
same,TGI,[50],> 100 µM
same,TGI,[51],> 100 µM
same,TGI,[52],> 100 µM
same,TGI,[53],> 100 µM
same,TGI,[54],> 100 µM
C[C@]12CC[C@H]3[C@@H](CC=C4C[C@@H](O)CC[C@@]43C)[C@@H]1C/C(=C\c1ccc([N+](=O)[O-])cc1)[C@@H]2O,TGI,[1],> 100 µM
same,TGI,[2],80.9 µM
same,TGI,[3],27.7 µM
same,TGI,[55],91.7 µM
same,TGI,[4],23.2 µM
same,TGI,[5],51.7 µM
same,TGI,[6],52.9 µM
same,TGI,[7],22.9 µM
same,TGI,[9],> 100 µM
same,TGI,[10],36.9 µM
same,TGI,[11],55.2 µM
same,TGI,[12],59 µM
same,TGI,[13],> 100 µM
same,TGI,[14],> 100 µM
same,TGI,[15],32.1 µM
same,TGI,[16],21.4 µM
same,TGI,[17],32.7 µM
same,TGI,[18],14 µM
same,TGI,[56],3.7 µM
same,TGI,[57],37.1 µM
same,TGI,[19],57.6 µM
same,TGI,[20],55.2 µM
same,TGI,[21],53 µM
same,TGI,[22],22.8 µM
same,TGI,[23],> 100 µM
same,TGI,[24],25.1 µM
same,TGI,[25],29.5 µM
same,TGI,[26],20.6 µM
same,TGI,[27],23 µM
same,TGI,[28],24.4 µM
same,TGI,[29],34.1 µM
same,TGI,[30],34.5 µM
same,TGI,[31],> 100 µM
same,TGI,[32],> 100 µM
same,TGI,[33],48.4 µM
same,TGI,[34],> 100 µM
same,TGI,[35],19.6 µM
same,TGI,[36],28.1 µM
same,TGI,[37],> 100 µM
same,TGI,[38],38 µM
same,TGI,[39],78.4 µM
same,TGI,[40],30.4 µM
same,TGI,[41],> 100 µM
same,TGI,[42],> 100 µM
same,TGI,[43],36.8 µM
same,TGI,[44],> 100 µM
same,TGI,[58],72.9 µM
same,TGI,[45],42.4 µM
same,TGI,[46],22.6 µM
same,TGI,[47],38.7 µM
same,TGI,[48],> 100 µM
same,TGI,[49],46.5 µM
same,TGI,[50],24.4 µM
same,TGI,[51],> 100 µM
same,TGI,[52],33.5 µM
same,TGI,[53],26.5 µM
same,TGI,[54],> 100 µM
